Data taken from ChEMBL document CHEMBL4118154, “Discovery of evocalcet, a next-generation calcium-sensing receptor agonist for the treatment of hyperparathyroidism” (Bioorg Med Chem Lett, 2018).
Counter-ions that a name gives are not always drawn.

Columns and labels:
[1] = Intrinsic clearance in human liver microsomes assessed per protein; assay type: ADME, microsome; conditions: read-out: CLH
CYP2D6 [2] = target: T1, CYP2D6 (Homo sapiens, UniProt P10635); test: Inhibition of CYP2D6 (unknown origin) at 10 uM relative to control; assay type: ADME
T1 sequence (P10635 whole entry): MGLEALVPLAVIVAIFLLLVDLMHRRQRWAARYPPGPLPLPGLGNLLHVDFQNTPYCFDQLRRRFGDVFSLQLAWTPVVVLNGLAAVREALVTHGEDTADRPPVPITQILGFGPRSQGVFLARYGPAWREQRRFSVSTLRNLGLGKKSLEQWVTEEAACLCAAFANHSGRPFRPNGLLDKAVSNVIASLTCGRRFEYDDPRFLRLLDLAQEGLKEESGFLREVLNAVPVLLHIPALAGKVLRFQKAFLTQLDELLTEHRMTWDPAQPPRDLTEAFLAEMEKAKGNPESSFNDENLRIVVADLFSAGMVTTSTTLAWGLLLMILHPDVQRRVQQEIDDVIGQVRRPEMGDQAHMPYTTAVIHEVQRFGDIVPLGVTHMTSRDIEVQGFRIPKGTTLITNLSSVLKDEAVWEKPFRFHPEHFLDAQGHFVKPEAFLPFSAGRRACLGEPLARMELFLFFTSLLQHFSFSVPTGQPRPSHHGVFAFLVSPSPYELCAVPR

[3] = Intrinsic clearance in rat liver microsomes assessed per protein; assay type: ADME, microsome; conditions: read-out: CLH
[4] = target: T2, Extracellular calcium-sensing receptor (Rattus norvegicus, UniProt P48442); test: Agonist activity at CaSR in rat parathyroid cells assessed as inhibition of PTH (1 to 84 residues) production in presence of Cacl2 by ELISA; assay type: functional, cell-based
T2 sequence (P48442 whole entry): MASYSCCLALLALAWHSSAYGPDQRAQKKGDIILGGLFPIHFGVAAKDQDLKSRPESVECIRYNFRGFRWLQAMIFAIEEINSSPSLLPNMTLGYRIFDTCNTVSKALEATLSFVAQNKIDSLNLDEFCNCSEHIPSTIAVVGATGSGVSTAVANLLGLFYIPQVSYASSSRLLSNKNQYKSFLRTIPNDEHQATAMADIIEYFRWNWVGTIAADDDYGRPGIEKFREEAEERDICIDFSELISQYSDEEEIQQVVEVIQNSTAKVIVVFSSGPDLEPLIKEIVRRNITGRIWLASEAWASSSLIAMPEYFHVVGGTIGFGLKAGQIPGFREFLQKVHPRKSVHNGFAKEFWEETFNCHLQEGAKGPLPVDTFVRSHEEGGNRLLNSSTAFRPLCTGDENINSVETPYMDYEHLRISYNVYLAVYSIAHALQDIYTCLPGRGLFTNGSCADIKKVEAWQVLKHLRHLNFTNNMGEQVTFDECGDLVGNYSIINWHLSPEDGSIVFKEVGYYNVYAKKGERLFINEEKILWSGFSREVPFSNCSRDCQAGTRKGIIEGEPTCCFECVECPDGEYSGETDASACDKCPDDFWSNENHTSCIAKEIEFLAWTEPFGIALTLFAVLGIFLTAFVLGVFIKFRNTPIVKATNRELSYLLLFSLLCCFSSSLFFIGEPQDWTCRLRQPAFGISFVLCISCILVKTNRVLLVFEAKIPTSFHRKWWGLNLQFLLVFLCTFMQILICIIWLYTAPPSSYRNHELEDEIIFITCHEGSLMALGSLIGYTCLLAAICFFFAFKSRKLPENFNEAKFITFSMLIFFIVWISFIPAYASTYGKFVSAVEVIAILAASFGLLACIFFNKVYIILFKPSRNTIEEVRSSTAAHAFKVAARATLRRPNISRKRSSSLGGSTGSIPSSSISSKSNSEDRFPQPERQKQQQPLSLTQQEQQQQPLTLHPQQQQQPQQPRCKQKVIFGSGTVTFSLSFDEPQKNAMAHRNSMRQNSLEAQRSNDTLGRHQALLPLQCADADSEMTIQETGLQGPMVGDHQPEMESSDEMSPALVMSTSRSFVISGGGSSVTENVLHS

[5] = target: T3, Extracellular calcium-sensing receptor (Homo sapiens, UniProt P41180); test: Agonist activity at human CaSR expressed in CHO cells assessed as increase in intracellular calcium mobilization after 1 hr by Fura-2 dye-based fluorescence assay; assay type: functional, cell-based
T3 sequence (P41180 whole entry): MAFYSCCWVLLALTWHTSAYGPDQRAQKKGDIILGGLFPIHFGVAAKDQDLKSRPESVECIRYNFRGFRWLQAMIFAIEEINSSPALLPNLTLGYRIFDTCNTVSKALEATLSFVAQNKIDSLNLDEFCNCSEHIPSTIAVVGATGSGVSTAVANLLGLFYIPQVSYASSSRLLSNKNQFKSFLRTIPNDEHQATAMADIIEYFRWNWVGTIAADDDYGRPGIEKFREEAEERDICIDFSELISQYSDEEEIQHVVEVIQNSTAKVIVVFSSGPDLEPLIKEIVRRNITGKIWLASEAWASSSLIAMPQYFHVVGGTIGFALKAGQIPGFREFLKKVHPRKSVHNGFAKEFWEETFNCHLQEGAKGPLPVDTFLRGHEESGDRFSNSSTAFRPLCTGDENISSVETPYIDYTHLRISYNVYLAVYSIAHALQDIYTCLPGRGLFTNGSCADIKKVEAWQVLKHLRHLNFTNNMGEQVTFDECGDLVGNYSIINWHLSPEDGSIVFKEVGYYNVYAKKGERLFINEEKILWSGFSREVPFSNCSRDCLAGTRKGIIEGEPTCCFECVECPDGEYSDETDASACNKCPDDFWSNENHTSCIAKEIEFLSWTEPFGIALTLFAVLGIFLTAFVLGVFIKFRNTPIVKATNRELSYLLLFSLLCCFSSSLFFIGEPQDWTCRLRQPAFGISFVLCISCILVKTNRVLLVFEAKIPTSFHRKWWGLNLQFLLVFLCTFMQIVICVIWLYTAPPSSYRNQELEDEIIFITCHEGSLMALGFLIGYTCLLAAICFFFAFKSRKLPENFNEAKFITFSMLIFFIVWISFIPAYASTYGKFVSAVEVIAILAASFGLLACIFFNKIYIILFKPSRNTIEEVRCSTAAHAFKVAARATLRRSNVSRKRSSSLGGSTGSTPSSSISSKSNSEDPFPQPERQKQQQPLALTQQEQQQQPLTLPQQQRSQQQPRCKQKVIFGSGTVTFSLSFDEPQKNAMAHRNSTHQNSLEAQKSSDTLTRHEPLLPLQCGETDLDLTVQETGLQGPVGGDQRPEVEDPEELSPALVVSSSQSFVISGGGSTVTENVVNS

CYP2D6 [6] = target: T1, CYP2D6; test: Inhibition of CYP2D6 (unknown origin) at 0.1 uM relative to control; assay type: ADME
CYP2D6 [7] = target: T1, CYP2D6; test: Inhibition of CYP2D6 (unknown origin) at 1 uM relative to control; assay type: ADME
Cytochrome P450 2D6 = Cytochrome P450 2D6 (Homo sapiens, UniProt P10635); test: Inhibition of recombinant human CYP2D6 expressed in bacterial membranes using AMMC as substrate preincubated for 10 mins followed by NADPH addition measured after 30 mins by fluorescence assay; assay type: ADME, cell membranes
Sequence of Cytochrome P450 2D6 (P10635 whole entry): as the sequence (P10635 whole entry) above

| Compound | microsomal CLint [1] [µL/min/mg] | inhibition at 10 µM (CYP2D6 [2]) [%] | microsomal CLint [3] [µL/min/mg] | IC50 [4] [nM] | EC50 [5] [nM] | inhibition at 0.1 µM (CYP2D6 [6]) [%] | inhibition at 1 µM (CYP2D6 [7]) [%] | IC50 (Cytochrome P450 2D6) [nM] |
| --- | --- | --- | --- | --- | --- | --- | --- | --- |
| C[C@@H](N[C@H]1CCN(c2cccc(C(F)(F)F)c2)C1)c1cccc2ccccc12 | 171 | – | 370 | 13.1 | 450 | 85.1 | 87.5 | – |
| C[C@@H](N[C@@H]1CCN(c2cccc(OC(F)(F)F)c2)C1)c1cccc2ccccc12 | 206 | – | 270 | 4.3 | 320 | 15.8 | 61.2 | – |
| C[C@@H](N[C@@H]1CCCN(c2cccc(C(F)(F)F)c2)C1)c1cccc2ccccc12 | 662 | 87.6 | 610 | 2.1 | 380 | 54.8 | 78.7 | – |
| C[C@@H](N[C@@H]1CCCN(c2cccc(OC(F)(F)F)c2)C1)c1cccc2ccccc12 | 370 | 85.2 | 231 | 1.4 | 190 | 54 | 82.6 | – |
| C[C@@H](N[C@H]1CCN(c2cccc(OC(F)(F)F)c2)C1)c1cccc2ccccc12 | 84 | – | 176 | 11.7 | 600 | 85.9 | 88.4 | – |
| C[C@@H](NCCCc1cccc(C(F)(F)F)c1)c1cccc2ccccc12 [CINACALCET HYDROCHLORIDE] | – | – | – | – | 180 | – | – | < 100 |
| C[C@@H](N[C@H]1CCCN(c2cccc(OC(F)(F)F)c2)C1)c1cccc2ccccc12 | 225 | 92.5 | 442 | 31.8 | 600 | 79 | 86.4 | – |

Second part, the compound after the results:

| microsomal CLint [1] [µL/min/mg] | inhibition at 10 µM (CYP2D6 [2]) [%] | microsomal CLint [3] [µL/min/mg] | IC50 [4] [nM] | EC50 [5] [nM] | inhibition at 0.1 µM (CYP2D6 [6]) [%] | inhibition at 1 µM (CYP2D6 [7]) [%] | IC50 (Cytochrome P450 2D6) [nM] | Compound |
| --- | --- | --- | --- | --- | --- | --- | --- | --- |
| 312 | 75.3 | 42 | 0.47 | 17 | – | – | – | C[C@@H](N[C@H]1CCN(c2ccc(-c3nn[nH]n3)cc2)C1)c1cccc2ccccc12 |
| – | – | – | – | 8800 | – | – | – | C[C@@H](N[C@@H]1CCN(c2ccc(C(=O)O)cc2)C1)c1cccc2ccccc12 |
| – | – | – | > 100 | 1100 | – | – | – | C[C@@H](N[C@H]1CCCN(c2ccc(C(=O)O)cc2)C1)c1cccc2ccccc12 |
| 197 | 30.7 | 667 | 0.91 | 50 | 4.4 | 3.4 | – | C[C@@H](N[C@H]1CCN(c2ccc(C(=O)NCCO)cc2)C1)c1cccc2ccccc12 |
| – | – | – | 116 | 230 | – | – | – | C[C@@H](N[C@@H]1CCN(c2ccc(OC(F)(F)F)cc2)C1)c1cccc2ccccc12 |
| – | 79.8 | – | 7.8 | 120 | 15.8 | 62.5 | – | C[C@@H](N[C@H]1CCN(c2ccc(OC(F)(F)F)cc2)C1)c1cccc2ccccc12 |
| 97 | 14.1 | 92 | 8 | – | 0 | 14.1 | – | C[C@@H](N[C@H]1CCN(c2ccc(C(=O)O)cc2)C1)c1cccc2ccccc12 |
| 421 | – | 302 | 9.7 | 430 | 3 | 60 | – | C[C@@H](N[C@@H]1CCN(c2cccc(C(F)(F)F)c2)C1)c1cccc2ccccc12 |
